Assay results as given in patent US5455267A, “Chromone derivative, and aldose reductase inhibitor comprising said compound as active component” (Tsumura & Co., priority 1990, dated 1995).

What follows are molecules tested against T1, aldose reductase (Rattus norvegicus, UniProt P07943) (assay: Determination of Aldose Reductase Activity (In Vitro)). Conditions: Table 3; at the concentration of 10 μM; read-out: Inhibition rate %.
T1 construct: The crystalline lenses were homogenized in 135 mM sodium-potassium-phosphate buffer (pH 7.0) and centrifuged; from tissue; host or cells: lens of 6 week-old Wistar rats (30,000 rpm supernatant of homogenate)
Assay type: biochemical, rat (Wistar)
Experimental: 6 week-old Wistar rats were sacrificed under ether anesthesia, and immediately lenses were removed and stored at -20° C. The crystalline lenses were homogenized in 135 mM sodium-potassium-phosphate buffer (pH 7.0) and centrifuged for 30 min. at 30,000 rpm. The supernatant was used as an aldose-reductase solution. The above procedure was carried out at 4° C. The enzyme solution was stored at -20° C.
The measurement of aldose reductase activity was conducted according to the method as described by Duffane et al. (Biochemical Medicine, 32:99-105 (1984)).
That is, 100 gl of the above enzyme solution and 100 gl of a solution prepared by dissolving a compound obtained in the following example to a final concentration of from 1.0×10^-5 to 4.0×10^-7 M in dimethylsulfoxide (DMSO) were added to 800 gl of 135 mM sodium-potassium-phosphate buffer (pH 7.0) containing 100 mM lithium sulfate, 0.03 mM NADPH (reduced form of nicotinamide adeninc dinucleotide phosphate) and 20 mM glucose as a substrate. The sample was allowed to react for 30 min. at 30° C. The reaction was stopped by addition of 0.3 ml of 0.5N hydrochloric acid. The NADP (oxided form of nicotinamide adenine dinucleotide) formed during the above reaction was converted into a fluorescent substance by addition of 1 ml of 6N sodium hydroxide containing 10 mM imidazole. 30 min. thereafter, the sample was measured for fluorescence intensity at the fluorescence wavelength of 460 nm (excitation wavelength: 360 nm) using a fluorescence photometer F-4000 (manufactured by Hitachi, Ltd.) at room temperature. A sample containing DMSO in place of the present compound was used as a control, and its fluorescence intensity was determined in the same manner as above.
Aldose reductase is an enzyme to convert DL-glyceraldehyde or glucose into polyol in the presence of NADPH as a coenzyme. As this reaction proceeds, NADPH is converted into NADP, so that the smaller amount of NADP formed indicates higher inhibition of aldose reductase. […]

In order of falling inhibition at 10 µM:
1. CCOc1c(OC)c(OC(C)C)cc2oc(Sc3ccc(O)cc3)cc(=O)c12 [Example 18, 5-ethoxy-2-(4-hydroxyphenylthio)-7-isopropoxy-6-methoxychromone]  98.7%
2. COc1c(OC(C)C)cc2oc(Sc3ccc(O)cc3)cc(=O)c2c1OC [Example 22, 5,6-dimethoxy-2-(4-hydroxyphenylthio)-7-isopropoxychromone]  98.3%
3. COc1cc2oc(Sc3ccc(O)cc3)cc(=O)c2c(OC)c1OC [Example 1, 2-(4-hydroxyphenylthio)-5,6,7-trimethoxychromone]  97.3%
4. CCC(CC)Oc1cc2oc(Sc3ccc(O)cc3)cc(=O)c2c(O)c1OC [Example 33, 7-(1-ethylpropoxy)-5-hydroxy-2-(4-hydroxyphenylthio)-6-methoxychromone]  96.7%
5. CCC(C)Oc1cc2oc(Sc3ccc(O)cc3)cc(=O)c2c(OC(C)C)c1OC (stereo not shown) [Example 16, 7-s-butoxy-2-(4-hydroxyphenylthio)-5-isopropoxy-6-methoxychromone]  96.5%
6. COc1c(O)cc2oc(Sc3ccc(O)cc3)cc(=O)c2c1O [Compound (Formula B), reference compound]  94.5%
7. CCC(CC)Oc1cc2oc(Sc3ccc(O)cc3)cc(=O)c2c(OC)c1OC [Example 25, 5,6-dimethoxy-7-(1-ethylpropoxy)-2-(4-hydroxyphenylthio)chromone]  93.2%

Same assay, conditions: Table 3; rat lens aldose reductase, 20 mM glucose, 30 min, 30° C, pH 7.0; read-out: 50% Inhibition Conc. [IC50 (M)]

In order of falling IC50:
1. COc1cc2oc(Sc3ccc(O)cc3)cc(=O)c2c(OC)c1OC [Example 1, 2-(4-hydroxyphenylthio)-5,6,7-trimethoxychromone]  1.1e-07 M
2. CCC(CC)Oc1cc2oc(Sc3ccc(O)cc3)cc(=O)c2c(O)c1OC [Example 33, 7-(1-ethylpropoxy)-5-hydroxy-2-(4-hydroxyphenylthio)-6-methoxychromone]  1.1e-07 M
3. CCC(CC)Oc1cc2oc(Sc3ccc(O)cc3)cc(=O)c2c(OC)c1OC [Example 25, 5,6-dimethoxy-7-(1-ethylpropoxy)-2-(4-hydroxyphenylthio)chromone]  6e-08 M
4. CCC(C)Oc1cc2oc(Sc3ccc(O)cc3)cc(=O)c2c(OC(C)C)c1OC (stereo not shown) [Example 16, 7-s-butoxy-2-(4-hydroxyphenylthio)-5-isopropoxy-6-methoxychromone]  3.8e-08 M
5. COc1c(OC(C)C)cc2oc(Sc3ccc(O)cc3)cc(=O)c2c1OC [Example 22, 5,6-dimethoxy-2-(4-hydroxyphenylthio)-7-isopropoxychromone]  3e-08 M

Same assay, conditions: Table 4; aldose reductase; read-out: 50% Inhibition conc [IC50 (M)] Aldose reductase

In order of falling IC50:
1. COc1c(O)cc2oc(Sc3ccc(O)cc3)cc(=O)c2c1O [Compound (Formula B), reference compound]  1.8e-07 M
2. CCOc1c(OC)c(OC(C)C)cc2oc(Sc3ccc(O)cc3)cc(=O)c12 [Example 18, 5-ethoxy-2-(4-hydroxyphenylthio)-7-isopropoxy-6-methoxychromone]  1.8e-08 M

What follows are molecules tested against T2, aldehyde reductase (Rattus norvegicus, UniProt P51635) (assay: Ability of Selective Inhibition of Aldose Reductase (aldehyde reductase activity)). Conditions: IC50 of aldehyde reductase divided by IC50 of aldose reductase.
T2 construct: The supernatant thus obtained was subjected to 30-60% ammonium sulfate fractionation; from tissue; host or cells: rat kidney (30-60% ammonium sulfate fraction of homogenate supernatant, dialyzed)
T2 sequence (P51635 1-325): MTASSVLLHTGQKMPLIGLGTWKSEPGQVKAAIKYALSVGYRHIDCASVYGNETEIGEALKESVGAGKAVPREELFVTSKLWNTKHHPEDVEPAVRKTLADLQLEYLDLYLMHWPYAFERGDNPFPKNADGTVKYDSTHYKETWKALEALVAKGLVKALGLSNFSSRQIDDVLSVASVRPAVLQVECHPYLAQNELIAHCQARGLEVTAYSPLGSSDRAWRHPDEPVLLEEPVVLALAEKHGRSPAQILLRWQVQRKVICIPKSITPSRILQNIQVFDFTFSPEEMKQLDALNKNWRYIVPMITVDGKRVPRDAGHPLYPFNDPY
Assay type: biochemical
Experimental: From rats under ether anesthesia, the kidneys were removed and stored at -20 ° C. The kidneys were homogenized in 0.1M phosphate buffer (pH 7.2) containing 5 mM 2-mercaptoethanol (kidneys: buffer =1:10 (by volume)), followed by centrifugation (14,000 rpm, 20 min., 4° C.), whereby a supernatant was obtained. The supernatant thus obtained was subjected to 30-60% ammonium sulfate fractionation. The resulting precipitates were collected by centrifugation (9,200 rpm, 20 min., 4° C.) The precipitates were suspended in a buffer with the same composition as described above. This suspension was dialyzed overnight at 4° C. against a buffer with the same composition, so that a crude aldehyde reductase solution was obtained. The activity of aldehyde reductase was determined in the same manner as for aldose reductase except for use of 0.1M phosphate buffer (pH 7.0) and as substrate 50 mM DL-glyceraldehyde.
The ability of selective inhibition of aldose reductase was determined by dividing the thus obtained 50% inhibition concentration [IC50 (M)] of aldehyde reductase by the above 50% inhibition concentration [IC50 (M)]of aldose reductase.

In the case of `COc1c(O)cc2oc(Sc3ccc(O)cc3)cc(=O)c2c1O` [Compound (Formula B), reference compound], the “Ability of selective inhibition” value is reported as 55.5.

Same assay, conditions: Table 4; rat kidney aldehyde reductase, 50 mM DL-glyceraldehyde, pH 7.0; read-out: 50% Inhibition conc [IC50 (M)] Aldehyde reductase

`CCC(C)Oc1cc2oc(Sc3ccc(O)cc3)cc(=O)c2c(OC(C)C)c1OC` (stereo not shown) [Example 16, 7-s-butoxy-2-(4-hydroxyphenylthio)-5-isopropoxy-6-methoxychromone] and `CCOc1c(OC)c(OC(C)C)cc2oc(Sc3ccc(O)cc3)cc(=O)c12` [Example 18, 5-ethoxy-2-(4-hydroxyphenylthio)-7-isopropoxy-6-methoxychromone] cannot be ordered by IC50: > 0.0001 M for the first, > 0.0001 M for the second.

`COc1cc2oc(Sc3ccc(O)cc3)cc(=O)c2c(OC)c1OC` [Example 1, 2-(4-hydroxyphenylthio)-5,6,7-trimethoxychromone] and `COc1c(OC(C)C)cc2oc(Sc3ccc(O)cc3)cc(=O)c2c1OC` [Example 22, 5,6-dimethoxy-2-(4-hydroxyphenylthio)-7-isopropoxychromone] cannot be ordered by IC50: > 0.0001 M for the first, > 0.0001 M for the second.

Compared with `COc1c(O)cc2oc(Sc3ccc(O)cc3)cc(=O)c2c1O` [Compound (Formula B), reference compound], `CCC(CC)Oc1cc2oc(Sc3ccc(O)cc3)cc(=O)c2c(O)c1OC` [Example 33, 7-(1-ethylpropoxy)-5-hydroxy-2-(4-hydroxyphenylthio)-6-methoxychromone] is 10-fold higher in IC50: 1e-05 M for the first, 0.0001 M for the second.

In the case of `CCC(CC)Oc1cc2oc(Sc3ccc(O)cc3)cc(=O)c2c(OC)c1OC` [Example 25, 5,6-dimethoxy-7-(1-ethylpropoxy)-2-(4-hydroxyphenylthio)chromone], the IC50 is reported as > 0.0001 M.

What follows are molecules tested on sorbitol contained in the sciatic nerves (aldose reductase) (assay: Determination of Aldose Reductase Activity (In Vivo): sorbitol in sciatic nerves of STZ diabetic rats). Conditions: Rattus norvegicus, po, 336 h; Table 3; 50 mg/Kg orally, sciatic nerve sorbitol; read-out: Repression rate %.
Set-up: species or system Wistar male rats
Experimental: Streptozotocin (STZ) dissolved in 10 mM citrate buffer (pH 4.5) was administered intravenously to 6 week-old Wistar male rats […] in an amount of 65 mg/kg. 48 hours thereafter, blood was collected from the carotid […] of the rats. Rats with a blood glucose level of 200 mg/dl or more were classified as those with diabetes. Rats with a persistent high level of blood sugar were employed in the experiment. The blood glucose level was determined by the glucose oxidase method. 2 weeks after administration of STZ, a compound obtained in the following examples was suspended in purified water or 0.5% carboxy sodium cellulose solution. This solution was orally administered into a rat in an amount of 30 mg/kg for 2 weeks. 2 weeks after the adminstration, sciatic nerves were removed from the rat under ether anesthesia. The sciatic nerves were weighed and stored at -20° C. The amount of sorbitol contained in the sciatic nerves was determined as follows. That is, the sciatic nerves were subjected to extraction with 1 ml of purified water containing 10 gg/ml arabinitol at 100° C. for 20 min., followed by addition of 0.2 ml each of 0.2M barium hydroxide and 0.19M zinc sulfate. […] The resulting sample was […] then analyzed by gas chromatography. Sorbitol is an intermediate which occurs during convertion of glucose to fructose by aldose reductase, and this intermediate is accumulated together with fructose in the crystalline lenses and sciatic nerves, particularly under a high level of blood glucose. Therefore, the smaller amount of sorbitol formed indicates higher inhibition of aldose reductase.

In order of rising inhibition in vivo at 50 mg/kg:
1. CCOc1c(OC)c(OC(C)C)cc2oc(Sc3ccc(O)cc3)cc(=O)c12 [Example 18, 5-ethoxy-2-(4-hydroxyphenylthio)-7-isopropoxy-6-methoxychromone]  5.9%
2. COc1c(OC(C)C)cc2oc(Sc3ccc(O)cc3)cc(=O)c2c1OC [Example 22, 5,6-dimethoxy-2-(4-hydroxyphenylthio)-7-isopropoxychromone]  6.8%
3. CCC(CC)Oc1cc2oc(Sc3ccc(O)cc3)cc(=O)c2c(OC)c1OC [Example 25, 5,6-dimethoxy-7-(1-ethylpropoxy)-2-(4-hydroxyphenylthio)chromone]  16%
